From patent US7704995B2 (Exelixis, Inc., priority 2003, dated 2010) come the findings set out here.

As a reminder, the IC50 is the concentration needed to halve the response being measured.

In this test the target is T1, Chk1 (Homo sapiens, UniProt O14757).
T1 construct: purchased Upstate Biotechnology
T1 sequence (O14757 1-476): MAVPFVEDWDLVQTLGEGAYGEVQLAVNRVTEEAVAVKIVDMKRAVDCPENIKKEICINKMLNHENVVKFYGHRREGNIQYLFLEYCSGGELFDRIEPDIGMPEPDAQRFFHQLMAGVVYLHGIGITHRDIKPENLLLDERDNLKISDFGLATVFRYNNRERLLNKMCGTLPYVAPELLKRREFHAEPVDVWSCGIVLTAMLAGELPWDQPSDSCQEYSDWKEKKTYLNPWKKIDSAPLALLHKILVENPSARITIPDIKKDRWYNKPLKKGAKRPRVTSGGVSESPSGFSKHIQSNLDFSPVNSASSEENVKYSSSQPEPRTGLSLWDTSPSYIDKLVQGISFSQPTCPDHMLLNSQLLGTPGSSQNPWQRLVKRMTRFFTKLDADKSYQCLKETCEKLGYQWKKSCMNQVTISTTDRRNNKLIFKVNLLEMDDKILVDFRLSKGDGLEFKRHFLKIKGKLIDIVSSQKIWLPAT
Description: Chk1 kinase assay: incorporation of γ-33P ATP into immobilized myelin basic protein. It is filed as biochemical. The settings on record: read-out: Chk1 IC50. In outline:
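Read-out is scintillation counting of 33P incorporated into plate-bound myelin basic protein. Chk1 runs at 10 nM enzyme with 10 μM ATP, Chk2 at 20 nM with 30 μM ATP, each for 1 hour at room temperature. Duplicate points; IC50 taken as 50% activity reduction, Ki computed from IC50.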
On to `CNC(=O)c1nc(-c2cccc(C(=O)NCc3ccc(F)c(F)c3)c2)cnc1N` [Example 288, 3-amino-6-[3-({[(3,4-difluorophenyl)methyl]amino}carbonyl)phenyl]-N-methylpyrazine-2-carboxamide], for which the IC50 lay within 50 to 1000 nM.
Then `CNC(=O)c1nc(-c2cccc(C(=O)NCc3ccccc3F)c2)cnc1N` [Example 289, 3-amino-6-[3-({[(2-fluorophenyl)methyl]amino}carbonyl)phenyl]-N-methylpyrazine-2-carboxamide], with 50 to 1000 nM.
In the case of `CNC(=O)c1nc(-c2cccc(C(=O)NCc3ccc(N4CCN(C)CC4)cc3)c2)cnc1N` [Example 290, 3-amino-N-methyl-6-{3-[({[4-(4-methylpiperazin-1-yl)phenyl]methyl}amino)carbonyl]phenyl}pyrazine-2-carboxamide], the IC50 lay within 1000 to 10000 nM.
Then `CNC(=O)c1nc(-c2ccc(F)c(C(=O)NCc3ccccc3)c2)cnc1N` [Example 291, 3-amino-6-(4-fluoro-3-{[(phenylmethyl)amino]carbonyl}phenyl)-N-methylpyrazine-2-carboxamide], with 50 to 1000 nM; and `CNC(=O)c1nc(-c2cccc(C(=O)NCc3c(Cl)cc(Cl)cc3Cl)c2)cnc1N` [Example 292, 3-amino-N-methyl-6-[3-({[(2,4,6-trichlorophenyl)methyl]amino}carbonyl)phenyl]pyrazine-2-carboxamide], with 50 to 1000 nM; and `CNC(=O)c1nc(-c2cccc(C(=O)NCc3cccc(Cl)c3C)c2)cnc1N` [Example 293, 3-amino-6-[3-({[(3-chloro-2-methylphenyl)methyl]amino}carbonyl)phenyl]-N-methylpyrazine-2-carboxamide], with 50 to 1000 nM.
Under `CNC(=O)c1nc(-c2cccc(C(=O)NCc3cc(OC)ccc3OC)c2)cnc1N` [Example 294, 3-amino-6-{3-[({[2,5-bis(methyloxy)phenyl]methyl}amino)carbonyl]phenyl}-N-methylpyrazine-2-carboxamide] stands 50 to 1000 nM.
Under `CNC(=O)c1nc(-c2cccc(C(=O)NCc3ccc(C)c(F)c3)c2)cnc1N` [Example 295, 3-amino-6-[3-({[(3-fluoro-4-methylphenyl)methyl]amino}carbonyl)phenyl]-N-methylpyrazine-2-carboxamide] stands 50 to 1000 nM.
`CNC(=O)c1nc(-c2cccc(C(=O)NCc3c(F)ccc(C)c3Cl)c2)cnc1N` [Example 296, 3-amino-6-[3-({[(2-chloro-6-fluoro-3-methylphenyl)methyl]amino}carbonyl)phenyl]-N-methylpyrazine-2-carboxamide]: the IC50 was in the range of 50 to 1000 nM.
Under `CNC(=O)c1nc(-c2cccc(C(=O)NCc3c(F)ccc(F)c3Cl)c2)cnc1N` [Example 297, 3-amino-6-[3-({[(2-chloro-3,6-difluorophenyl)methyl]amino}carbonyl)phenyl]-N-methylpyrazine-2-carboxamide] stands 50 to 1000 nM; under `CNC(=O)c1nc(-c2cccc(C(=O)NCc3ccc(C)c(F)c3F)c2)cnc1N` [Example 298, 3-amino-6-[3-({[(2,3-difluoro-4-methylphenyl)methyl]amino}carbonyl)phenyl]-N-methylpyrazine-2-carboxamide], 50 to 1000 nM.
With `CNC(=O)c1nc(-c2cccc(C(=O)NCc3ccc(F)c(C)c3)c2)cnc1N` [Example 299, 3-amino-6-[3-({[(4-fluoro-3-methylphenyl)methyl]amino}carbonyl)phenyl]-N-methylpyrazine-2-carboxamide], the IC50 was in the range of 50 to 1000 nM.
`CNC(=O)c1nc(-c2cccc(C(=O)NCc3cccc(Cl)c3F)c2)cnc1N` [Example 300, 3-amino-6-[3-({[(3-chloro-2-fluorophenyl)methyl]amino}carbonyl)phenyl]-N-methylpyrazine-2-carboxamide]: the IC50 lay in the range of 50 to 1000 nM.
On to `CNC(=O)c1nc(-c2cccc(C(=O)NCc3c(Cl)ccc(C)c3F)c2)cnc1N` [Example 301, 3-amino-6-[3-({[(6-chloro-2-fluoro-3-methylphenyl)methyl]amino}carbonyl)phenyl]-N-methylpyrazine-2-carboxamide], for which the IC50 was 50 to 1000 nM.
